Results published in ChEMBL document CHEMBL1201862, “PubChem BioAssay data set” (2004).
Calls of active or inactive are those of the source.

What was measured:
[1] = HEK293 Cytotoxicity Assay Measured in Cell-Based System Using Plate Reader - 7071-01_Inhibitor_Dose_CherryPick_Activity_Set2.; assay type: functional
[2] = test system: HEK293; test: viability loss in HEK293T cells – cell-based, ATP luminescence, cherry-pick samples, cytotoxicity control, dose response (AID 687005); assay type: functional; settings: Homo sapiens;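 further: cells exposed to compound for 48 hours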
[3] = viability inhibitors of stage V gametocytes – luminescence, dose response (AID 1117278); assay type: functional, cell-based;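 further: gametocytes exposed to compound for 24 hours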
[4] = viability loss in human Jurkat cells – cell-based, luminescence, cytotoxicity control for P. falciparum gametocyte viability project, dose response (AID 1117277); assay type: functional;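 further: potency reflects loss of cellular ATP meaning fewer viable cells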
[5] = target: Kallikrein-7 (Homo sapiens, UniProt P49862); test: Fluorescence Intensity-based biochemical primary high throughput dose response assay to identify activators of kallikrein-7 (K7) zymogen.
Chain of Kallikrein-7 (P49862 whole entry): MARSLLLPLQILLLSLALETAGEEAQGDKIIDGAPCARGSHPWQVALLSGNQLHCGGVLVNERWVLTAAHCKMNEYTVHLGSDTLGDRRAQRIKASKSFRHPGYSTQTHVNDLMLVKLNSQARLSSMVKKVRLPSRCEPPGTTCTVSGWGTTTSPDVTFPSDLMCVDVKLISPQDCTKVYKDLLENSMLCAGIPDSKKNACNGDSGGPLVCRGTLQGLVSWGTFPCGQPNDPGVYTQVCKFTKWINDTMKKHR

[6] = target: Eukaryotic translation initiation factor 4E (Mus musculus, UniProt P63073); test: blockers of eIF4G binding by eIF4E – biochemical, TR-FRET, dose response (AID 855); assay type: functional;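 further: potency for disrupting eIF4E binding to eIF4GI seen as loss of FRET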
Chain of Eukaryotic translation initiation factor 4E (P63073 whole entry): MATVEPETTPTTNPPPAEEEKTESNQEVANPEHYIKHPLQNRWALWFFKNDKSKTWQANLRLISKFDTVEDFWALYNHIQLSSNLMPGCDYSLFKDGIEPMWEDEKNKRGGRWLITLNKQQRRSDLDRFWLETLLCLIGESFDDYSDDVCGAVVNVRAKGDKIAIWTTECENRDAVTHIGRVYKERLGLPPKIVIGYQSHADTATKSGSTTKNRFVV

[7] = target: Induced myeloid leukemia cell differentiation protein Mcl-1 (Homo sapiens, UniProt Q07820); assay type: functional
Chain of Induced myeloid leukemia cell differentiation protein Mcl-1 (Q07820 whole entry): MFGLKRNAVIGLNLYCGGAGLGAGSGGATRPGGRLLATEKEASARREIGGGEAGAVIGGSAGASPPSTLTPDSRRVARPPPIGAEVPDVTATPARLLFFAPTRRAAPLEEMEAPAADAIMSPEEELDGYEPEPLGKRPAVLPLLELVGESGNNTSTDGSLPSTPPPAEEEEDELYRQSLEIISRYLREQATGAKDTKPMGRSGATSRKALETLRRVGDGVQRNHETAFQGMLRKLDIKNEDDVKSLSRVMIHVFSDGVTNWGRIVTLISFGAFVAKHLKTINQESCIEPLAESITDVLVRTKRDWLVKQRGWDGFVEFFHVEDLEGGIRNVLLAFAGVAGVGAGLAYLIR

[8] = target: T1, Small ubiquitin-related modifier 1 (Homo sapiens, UniProt P63165); test: SUMO1 protein-protein binding blockers, potency – biochemical, FRET, dose response (AID 624383); assay type: functional; settings: read-out: IC50_Mean
T1 sequence (P63165 whole entry): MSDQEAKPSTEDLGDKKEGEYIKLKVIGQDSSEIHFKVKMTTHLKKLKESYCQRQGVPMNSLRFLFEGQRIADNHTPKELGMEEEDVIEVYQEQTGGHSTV

[9] = target: T2, Histone-lysine N-methyltransferase NSD2 (Homo sapiens, UniProt O96028); assay type: biochemical
T2 sequence (O96028 whole entry): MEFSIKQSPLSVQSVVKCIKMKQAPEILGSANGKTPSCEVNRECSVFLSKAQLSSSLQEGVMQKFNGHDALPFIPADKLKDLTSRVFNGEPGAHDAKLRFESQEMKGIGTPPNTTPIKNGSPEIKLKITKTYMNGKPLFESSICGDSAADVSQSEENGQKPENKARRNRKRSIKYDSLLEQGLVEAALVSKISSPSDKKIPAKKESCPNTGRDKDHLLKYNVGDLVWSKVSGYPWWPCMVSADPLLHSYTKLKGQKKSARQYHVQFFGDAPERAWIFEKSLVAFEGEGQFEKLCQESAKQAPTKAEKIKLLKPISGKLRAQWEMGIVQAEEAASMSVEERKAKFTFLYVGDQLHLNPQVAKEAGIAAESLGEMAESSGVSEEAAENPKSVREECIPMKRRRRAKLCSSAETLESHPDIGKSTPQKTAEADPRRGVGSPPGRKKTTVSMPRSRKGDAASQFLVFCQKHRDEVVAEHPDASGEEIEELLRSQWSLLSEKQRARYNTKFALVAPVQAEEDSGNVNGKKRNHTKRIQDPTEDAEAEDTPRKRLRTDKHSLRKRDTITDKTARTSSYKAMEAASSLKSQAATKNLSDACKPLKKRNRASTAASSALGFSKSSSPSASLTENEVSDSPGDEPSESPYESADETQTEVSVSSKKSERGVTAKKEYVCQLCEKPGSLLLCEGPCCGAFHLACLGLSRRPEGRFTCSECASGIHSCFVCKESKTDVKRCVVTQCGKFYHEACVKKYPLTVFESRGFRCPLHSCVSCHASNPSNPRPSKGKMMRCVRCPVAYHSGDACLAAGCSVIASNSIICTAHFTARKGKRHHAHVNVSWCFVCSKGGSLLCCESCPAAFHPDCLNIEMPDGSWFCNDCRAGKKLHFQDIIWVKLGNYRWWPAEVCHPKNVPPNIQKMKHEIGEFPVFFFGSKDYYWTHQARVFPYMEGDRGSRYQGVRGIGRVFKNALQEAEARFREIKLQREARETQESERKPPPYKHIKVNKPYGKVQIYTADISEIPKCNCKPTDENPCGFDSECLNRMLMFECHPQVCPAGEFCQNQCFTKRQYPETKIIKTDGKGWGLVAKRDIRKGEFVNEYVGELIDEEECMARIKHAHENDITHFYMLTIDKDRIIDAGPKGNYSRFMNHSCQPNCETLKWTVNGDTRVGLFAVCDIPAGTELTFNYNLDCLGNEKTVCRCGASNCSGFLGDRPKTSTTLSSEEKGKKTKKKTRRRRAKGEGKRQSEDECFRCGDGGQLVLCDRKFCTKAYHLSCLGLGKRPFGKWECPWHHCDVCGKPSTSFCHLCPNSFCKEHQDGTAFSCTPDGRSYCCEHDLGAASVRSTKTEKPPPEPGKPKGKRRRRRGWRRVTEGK

[10] = target: T3, Rac GTPase-activating protein 1 (Homo sapiens, UniProt Q9H0H5); test: blockers of MgcRacGAP-driven Rac1 GTP hydrolysis – biochemical, ADP Hunter fluorescence, primary and confirmatory, confirmation (AID 624330); assay type: functional
T3 sequence (Q9H0H5 whole entry): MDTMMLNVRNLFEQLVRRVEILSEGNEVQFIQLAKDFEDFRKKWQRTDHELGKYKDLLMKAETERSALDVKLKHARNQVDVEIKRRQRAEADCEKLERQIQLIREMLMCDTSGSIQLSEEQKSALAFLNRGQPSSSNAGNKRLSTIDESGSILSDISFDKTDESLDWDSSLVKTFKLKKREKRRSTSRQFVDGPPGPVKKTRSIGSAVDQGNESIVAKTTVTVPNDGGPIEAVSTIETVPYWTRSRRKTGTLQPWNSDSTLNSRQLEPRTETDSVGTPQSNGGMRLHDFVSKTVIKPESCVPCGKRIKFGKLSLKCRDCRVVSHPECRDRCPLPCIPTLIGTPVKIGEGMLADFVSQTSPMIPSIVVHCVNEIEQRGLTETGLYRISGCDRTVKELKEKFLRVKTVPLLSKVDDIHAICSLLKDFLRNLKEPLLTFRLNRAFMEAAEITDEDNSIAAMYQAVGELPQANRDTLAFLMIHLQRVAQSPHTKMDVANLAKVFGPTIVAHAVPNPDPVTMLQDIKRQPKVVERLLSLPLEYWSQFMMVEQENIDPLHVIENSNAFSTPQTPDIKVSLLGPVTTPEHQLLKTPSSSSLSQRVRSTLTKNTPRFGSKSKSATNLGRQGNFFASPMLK

[11] = target: T4, ORF 73 (Human herpesvirus 8, UniProt O40947); test: KSHV LANA DNA-binding disruption – biochemical, fluorescence polarization, cherry-picked samples, dose response (AID 504725); design: species or system Human gammaherpesvirus 8;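 further: fluorescence polarization of a labeled DNA duplex reporting LANA DNA binding; potency is for inhibitors that block LANA binding to the DNA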
T4 sequence (O40947 whole entry): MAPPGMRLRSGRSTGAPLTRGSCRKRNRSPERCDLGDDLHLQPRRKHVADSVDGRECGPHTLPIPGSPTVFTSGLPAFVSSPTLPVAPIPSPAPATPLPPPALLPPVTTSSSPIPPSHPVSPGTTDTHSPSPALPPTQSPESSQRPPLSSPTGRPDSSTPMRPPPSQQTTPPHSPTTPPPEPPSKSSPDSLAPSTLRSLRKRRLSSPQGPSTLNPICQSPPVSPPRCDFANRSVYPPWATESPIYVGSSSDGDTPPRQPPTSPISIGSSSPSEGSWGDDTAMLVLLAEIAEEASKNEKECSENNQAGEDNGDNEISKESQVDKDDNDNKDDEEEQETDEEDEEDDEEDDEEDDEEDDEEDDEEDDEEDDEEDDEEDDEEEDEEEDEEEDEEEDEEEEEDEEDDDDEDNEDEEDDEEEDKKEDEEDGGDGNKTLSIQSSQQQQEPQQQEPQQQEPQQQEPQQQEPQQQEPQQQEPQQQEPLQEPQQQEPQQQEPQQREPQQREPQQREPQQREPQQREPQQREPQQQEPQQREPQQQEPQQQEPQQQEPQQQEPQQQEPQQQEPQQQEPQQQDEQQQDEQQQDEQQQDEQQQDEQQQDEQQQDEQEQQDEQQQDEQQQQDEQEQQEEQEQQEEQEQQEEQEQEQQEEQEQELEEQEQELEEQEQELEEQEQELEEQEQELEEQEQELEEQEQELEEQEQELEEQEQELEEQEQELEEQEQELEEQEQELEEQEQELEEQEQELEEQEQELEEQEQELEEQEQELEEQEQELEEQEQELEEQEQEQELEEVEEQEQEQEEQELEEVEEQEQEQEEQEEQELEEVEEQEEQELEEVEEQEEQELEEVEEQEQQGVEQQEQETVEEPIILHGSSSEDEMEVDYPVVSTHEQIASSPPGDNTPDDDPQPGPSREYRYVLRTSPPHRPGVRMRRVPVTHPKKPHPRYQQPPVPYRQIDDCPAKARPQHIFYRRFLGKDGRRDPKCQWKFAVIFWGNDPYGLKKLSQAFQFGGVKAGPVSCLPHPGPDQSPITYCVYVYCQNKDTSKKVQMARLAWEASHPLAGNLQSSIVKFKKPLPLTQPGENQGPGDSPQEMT

[12] = viability loss in THP-1 monocytes – THP-1 cells, cytotoxicity control for Vif-APOBEC3G degradation inhibitor project, dose response (AID 1117359); assay type: functional; settings: THP-1
[13] = target: T1, Small ubiquitin-related modifier 1; test: SUMO1 protein interaction blockers, potency – biochemical, fluorescence polarization, uHTS hits, dose response (AID 624382); assay type: functional; settings: read-out: IC50_Mean
[14] = HIV-1 Vif–A3G interaction blockers – biochemical, TR-FRET, GST-Vif 1-94, biotin-A3G peptide, dose response retest, primary screen (AID 1117319); assay type: functional;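 further: TR-FRET signal of purified GST-Vif binding a biotinylated A3G peptide; inhibitors lower the FRET signal by blocking Vif and A3G binding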
[15] = target: Mitogen-activated protein kinase 10 (Homo sapiens, UniProt P53779); test: Dose response biochemical screening assay for inhibitors of c-Jun N-Terminal Kinase 3 (JNK3). [Related pubchem assays: 746 ]
Chain of Mitogen-activated protein kinase 10 (P53779 whole entry): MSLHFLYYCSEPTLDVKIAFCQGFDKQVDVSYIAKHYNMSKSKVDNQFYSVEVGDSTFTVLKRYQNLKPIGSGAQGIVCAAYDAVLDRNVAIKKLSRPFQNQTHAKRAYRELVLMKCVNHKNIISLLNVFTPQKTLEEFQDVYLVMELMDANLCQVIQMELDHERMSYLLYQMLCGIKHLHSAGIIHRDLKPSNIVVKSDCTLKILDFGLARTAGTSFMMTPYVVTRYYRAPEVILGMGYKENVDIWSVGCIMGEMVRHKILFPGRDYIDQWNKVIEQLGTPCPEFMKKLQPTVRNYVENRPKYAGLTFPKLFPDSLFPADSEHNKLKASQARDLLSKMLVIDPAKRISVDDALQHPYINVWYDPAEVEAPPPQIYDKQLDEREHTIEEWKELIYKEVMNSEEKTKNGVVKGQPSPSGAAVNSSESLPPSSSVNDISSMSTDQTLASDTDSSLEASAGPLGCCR

[16] = target: Voltage-dependent T-type calcium channel subunit alpha-1H (Homo sapiens, UniProt O95180); assay type: functional;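 further: channel activity triggered by adding a high calcium stimulation buffer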
Chain of Voltage-dependent T-type calcium channel subunit alpha-1H (O95180 whole entry, the tested form may be a part): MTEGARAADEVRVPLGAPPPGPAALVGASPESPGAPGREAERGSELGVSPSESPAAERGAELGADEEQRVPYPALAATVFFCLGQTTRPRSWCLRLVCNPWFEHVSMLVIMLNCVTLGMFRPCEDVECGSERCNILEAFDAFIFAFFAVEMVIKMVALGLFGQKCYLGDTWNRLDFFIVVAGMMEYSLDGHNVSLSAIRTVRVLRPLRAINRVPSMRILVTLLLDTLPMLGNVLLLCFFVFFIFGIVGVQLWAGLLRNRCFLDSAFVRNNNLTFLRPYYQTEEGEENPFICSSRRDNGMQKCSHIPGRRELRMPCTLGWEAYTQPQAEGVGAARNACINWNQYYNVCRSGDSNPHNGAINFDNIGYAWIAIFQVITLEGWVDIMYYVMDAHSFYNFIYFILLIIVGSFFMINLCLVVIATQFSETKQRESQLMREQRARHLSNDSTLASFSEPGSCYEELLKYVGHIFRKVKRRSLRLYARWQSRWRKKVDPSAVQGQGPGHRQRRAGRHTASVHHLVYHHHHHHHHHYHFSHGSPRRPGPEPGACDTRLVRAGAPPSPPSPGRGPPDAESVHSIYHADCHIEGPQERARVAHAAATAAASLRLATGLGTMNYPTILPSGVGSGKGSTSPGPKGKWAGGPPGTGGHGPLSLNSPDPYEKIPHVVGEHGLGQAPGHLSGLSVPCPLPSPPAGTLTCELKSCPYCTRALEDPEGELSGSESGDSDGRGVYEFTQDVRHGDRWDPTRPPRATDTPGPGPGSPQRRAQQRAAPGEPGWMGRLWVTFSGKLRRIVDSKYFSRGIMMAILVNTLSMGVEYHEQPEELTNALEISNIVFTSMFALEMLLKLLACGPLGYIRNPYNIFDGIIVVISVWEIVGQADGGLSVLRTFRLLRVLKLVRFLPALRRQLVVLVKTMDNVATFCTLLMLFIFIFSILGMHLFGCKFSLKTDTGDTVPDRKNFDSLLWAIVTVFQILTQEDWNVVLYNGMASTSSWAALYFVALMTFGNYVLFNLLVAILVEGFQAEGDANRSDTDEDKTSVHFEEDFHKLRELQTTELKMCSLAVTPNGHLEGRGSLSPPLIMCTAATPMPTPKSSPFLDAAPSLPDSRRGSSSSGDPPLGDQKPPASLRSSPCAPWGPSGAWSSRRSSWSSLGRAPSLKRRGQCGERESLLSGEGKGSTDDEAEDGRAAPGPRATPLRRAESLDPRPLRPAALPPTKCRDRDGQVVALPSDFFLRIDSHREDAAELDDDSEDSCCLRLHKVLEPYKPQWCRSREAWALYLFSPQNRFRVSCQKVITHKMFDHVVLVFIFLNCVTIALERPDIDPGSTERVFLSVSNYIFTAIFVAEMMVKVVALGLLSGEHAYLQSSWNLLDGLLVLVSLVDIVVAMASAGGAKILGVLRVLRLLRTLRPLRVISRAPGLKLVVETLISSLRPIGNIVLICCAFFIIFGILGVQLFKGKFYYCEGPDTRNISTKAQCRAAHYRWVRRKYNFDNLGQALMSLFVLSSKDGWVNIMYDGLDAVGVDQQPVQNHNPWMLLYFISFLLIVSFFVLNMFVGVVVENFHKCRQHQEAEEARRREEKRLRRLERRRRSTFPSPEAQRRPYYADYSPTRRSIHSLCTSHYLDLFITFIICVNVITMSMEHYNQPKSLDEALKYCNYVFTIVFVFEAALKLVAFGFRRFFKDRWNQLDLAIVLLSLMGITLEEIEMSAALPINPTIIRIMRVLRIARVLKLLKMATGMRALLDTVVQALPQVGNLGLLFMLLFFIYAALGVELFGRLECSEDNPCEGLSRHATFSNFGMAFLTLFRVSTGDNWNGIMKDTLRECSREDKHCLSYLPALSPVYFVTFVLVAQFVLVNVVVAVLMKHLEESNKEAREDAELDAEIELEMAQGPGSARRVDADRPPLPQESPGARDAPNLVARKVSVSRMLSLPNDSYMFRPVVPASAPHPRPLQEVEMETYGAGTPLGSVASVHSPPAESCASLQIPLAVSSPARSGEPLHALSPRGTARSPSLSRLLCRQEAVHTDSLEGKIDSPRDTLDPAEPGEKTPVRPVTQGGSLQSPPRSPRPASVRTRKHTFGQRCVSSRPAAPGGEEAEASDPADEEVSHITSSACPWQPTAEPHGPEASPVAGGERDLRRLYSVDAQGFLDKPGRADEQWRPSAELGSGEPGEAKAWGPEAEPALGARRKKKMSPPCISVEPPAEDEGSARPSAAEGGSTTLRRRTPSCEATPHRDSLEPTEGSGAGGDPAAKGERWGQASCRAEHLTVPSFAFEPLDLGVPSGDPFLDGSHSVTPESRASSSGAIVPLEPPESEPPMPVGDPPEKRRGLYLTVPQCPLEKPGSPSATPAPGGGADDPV

[17] = HIV-1 AD8 envelope cell-cell fusion blockers – cherry-pick, dose response (AID 652062); assay type: functional, cell-based;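 further: luciferase signal from cell-cell fusion driven by HIV-1 clade B AD8 Env; potency is for inhibitors of fusion seen as a drop in luminescence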
[18] = blockers of HIV-1 envelope-mediated cell-cell fusion – cherry-pick, dose response (AID 652057); assay type: functional, cell-based
[19] = off-target signal loss in HeLa-CEM21 co-culture – HeLa F-luc CTL cells, cherry-picked, counter-screen for HIV-1 Env fusion inhibitor project, dose response (AID 652040); assay type: functional, cell-based;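 further: potency for signal decrease marking cytotoxic or nonspecific inhibition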
[20] = target: T5, Long-chain-fatty-acid--AMP ligase FadD28 (Mycobacterium tuberculosis, UniProt P9WQ59); test: Fluorescence polarization aasay to screen for inhibitors that compete for the binding of FadD28 to a bisubstrate Measured in Biochemical System Using Plate Reader - 2147-01_Inhibitor_Dose_CherryPick_Activity.; assay type: functional, Mycobacterium tuberculosis H37Rv
T5 sequence (P9WQ59 whole entry): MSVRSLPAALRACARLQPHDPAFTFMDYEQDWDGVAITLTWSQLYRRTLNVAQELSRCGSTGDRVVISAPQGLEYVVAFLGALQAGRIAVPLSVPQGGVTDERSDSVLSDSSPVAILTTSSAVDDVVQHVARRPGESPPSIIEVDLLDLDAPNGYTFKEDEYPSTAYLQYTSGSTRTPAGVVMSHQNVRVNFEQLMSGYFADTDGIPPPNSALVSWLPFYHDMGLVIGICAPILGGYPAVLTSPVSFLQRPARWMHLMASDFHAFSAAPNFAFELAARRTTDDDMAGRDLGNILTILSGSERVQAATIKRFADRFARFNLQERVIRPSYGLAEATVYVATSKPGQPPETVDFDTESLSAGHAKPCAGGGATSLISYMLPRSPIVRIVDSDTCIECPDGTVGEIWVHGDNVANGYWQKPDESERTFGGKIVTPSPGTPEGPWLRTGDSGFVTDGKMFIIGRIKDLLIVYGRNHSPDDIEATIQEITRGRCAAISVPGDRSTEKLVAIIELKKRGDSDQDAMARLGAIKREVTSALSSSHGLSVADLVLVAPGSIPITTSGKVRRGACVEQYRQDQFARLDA

[21] = target: T6, Calpain-2 catalytic subunit (Sus scrofa, UniProt P43367); test: m-calpain protease blockers, concentration series – biochemical, fluorogenic peptide substrate, dose response (AID 1420); assay type: functional
T6 sequence (P43367 whole entry): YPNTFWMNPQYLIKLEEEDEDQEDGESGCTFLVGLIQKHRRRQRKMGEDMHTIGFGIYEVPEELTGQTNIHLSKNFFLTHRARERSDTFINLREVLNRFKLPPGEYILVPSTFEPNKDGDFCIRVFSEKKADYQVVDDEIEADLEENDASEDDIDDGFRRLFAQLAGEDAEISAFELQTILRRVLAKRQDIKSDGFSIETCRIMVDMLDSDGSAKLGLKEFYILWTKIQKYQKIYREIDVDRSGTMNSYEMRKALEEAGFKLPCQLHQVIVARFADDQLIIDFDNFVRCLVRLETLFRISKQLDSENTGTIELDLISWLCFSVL

[22] = test system: INS1; test: INS-1E survival protection against cytokine death – cell-based, luminescence, retest, dose response (AID 449756); assay type: functional; settings: Rattus norvegicus;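 further: cell death triggered by IL-1 beta plus TNF-alpha plus IFN-gamma mixture; protective hits raise ATP signal compared with cytokine alone wells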

COC(=O)C1=C(C)N(Cc2ccccc2)C(=O)N[C@H]1c1cccc(F)c1
AC50 [1]: 24.6 µM (active)
AC50 [2]: 24.6 µM (active)

N#Cc1c(SCC(N)=O)nc2c(c1-c1ccncc1)CCCC2
IC50 [3]: > 109 µM (inactive)
IC50 [4]: > 83.3 µM (inactive)

C[C@@H]1CN([C@H](C)CO)S(=O)(=O)c2ccc(C#Cc3ccccn3)cc2O[C@H]1CN(C)Cc1ccccc1
AC50 [1]: 5.16 µM (active)
AC50 [2]: 5.16 µM (active)

COc1ccc(OC)c(/C=C/C(=O)OCC(=O)NCc2ccco2)c1
EC50 [5]: > 69.5 µM (inactive)

CSc1ccc(/C=N/Nc2cccc(C(=O)O)c2)cc1
IC50 [6]: 50 µM (inactive)
IC50 [7]: 2.19 µM (active)
IC50 [8]: 6.71 µM (active)
AC50 [9]: 2.93 µM (active)
IC50 [10]: 83.5 µM (active)
AC50 [11]: 19.8 µM (active)
CC50 [12]: > 40 µM (active)
IC50 [13]: > 66.6 µM (inactive)

Cc1ccc(-c2cn3cccnc3n2)cc1NC(=O)c1ccc(Br)o1
EC50 [5]: > 69.5 µM (inactive)

Cc1ccc(-c2csc3nc(CN(C)Cc4ccccc4)nc(O)c23)cc1
IC50 [3]: > 109 µM (inactive)
IC50 [4]: > 83.2 µM (inactive)

CCn1c(S)nnc1Cc1c(C)[nH]c2ccccc12
IC50 [14]: > 100 µM (active)

Cc1ccc(Nc2cc(-n3nc(C)cc3C)ncn2)cc1
IC50 [15]: 13.4 µM (not active)

Cc1ccc(CSCCNC(=O)c2ccc(Cl)c(S(=O)(=O)N3CCOCC3)c2)cc1
EC50 [16]: 4.41 µM (active)
AC50 [17]: 7.44 µM (active)
AC50 [18]: 25.3 µM (active)
AC50 [19]: 54.5 µM (active)
AC50 [20]: 5.54 µM (active)

Cc1coc2c1c(C)cc1oc(=O)c(CC(=O)NCCCCCC(=O)O)c(C)c12
EC50 [5]: > 69.5 µM (inactive)

O=C(CN1CC[n+]2c(-c3cccs3)csc21)c1ccc(-c2ccccc2)cc1
IC50 [3]: > 109 µM (inactive)
IC50 [21]: 22.1 µM (not active)
IC50 [4]: > 83.3 µM (inactive)
AC50 [22]: 2.39 µM (active)
